Assay results as given in patent publication US10287305B2, “Substituted piperidine compound and use thereof” (Takeda Pharmaceutical Company Limited, priority 2016, dated 2019).

Biological target: human orexin type 2 receptor (hOX2R) (Homo sapiens (Human), UniProt O43614)
Experiment: Measurement of orexin type 2 receptor agonist activity (Experimental Example 2-1, FLIPR TETRA, intracellular Ca2+)
Type: cell-based
Conditions: CHO dhfr- cells expressing hOX2R, FLIPR TETRA, Fluo-4AM; for Emax: read-out: Emax (%)

human orexin type 2 receptor (hOX2R), sequence (O43614 whole entry): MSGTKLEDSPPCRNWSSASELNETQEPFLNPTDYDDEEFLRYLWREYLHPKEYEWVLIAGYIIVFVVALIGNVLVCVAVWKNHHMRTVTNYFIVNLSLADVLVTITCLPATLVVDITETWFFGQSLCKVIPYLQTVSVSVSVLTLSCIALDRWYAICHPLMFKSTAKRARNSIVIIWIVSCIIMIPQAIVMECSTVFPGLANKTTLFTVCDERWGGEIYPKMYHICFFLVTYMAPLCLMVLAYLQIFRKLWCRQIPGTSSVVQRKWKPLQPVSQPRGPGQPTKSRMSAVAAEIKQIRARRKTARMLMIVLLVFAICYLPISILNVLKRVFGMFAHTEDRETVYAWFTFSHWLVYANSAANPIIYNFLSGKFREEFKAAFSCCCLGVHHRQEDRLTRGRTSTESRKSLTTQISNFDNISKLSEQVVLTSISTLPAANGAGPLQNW

Row | Compound | EC50 | Emax
1 | CS(=O)(=O)N[C@H]1CCCN(C(=O)C2CC2(F)F)[C@H]1COC1CCN(c2ccccc2F)CC1 (relative stereo) [Example 225, N-(cis-1-((2,2-difluorocyclopropyl)carbonyl)-2-(((1-(2-fluorophenyl)piperidin-4-yl)oxy)methyl)piperidin-3-yl)methanesulfonamide] | 1 µM | 98%
2 | CS(=O)(=O)N[C@H]1CCCN(C(=O)CC2CC2)[C@H]1COC1CCN(c2ccccc2F)CC1 (relative stereo) [Example 226, N-(cis-1-(cyclopropylacetyl)-2-(((1-(2-fluorophenyl)piperidin-4-yl)oxy)methyl)piperidin-3-yl)methanesulfonamide] | 2.2 µM | 86%
3 | CCCC(=O)N1CCC[C@H](NS(C)(=O)=O)[C@@H]1COC1CCN(c2ccccc2F)CC1 (relative stereo) [Example 227, N-(cis-1-butyryl-2-(((1-(2-fluorophenyl)piperidin-4-yl)oxy)methyl)piperidin-3-yl)methanesulfonamide] | 2.4 µM | 102%
4 | CCOC(=O)N1CCC[C@H](NS(C)(=O)=O)[C@@H]1COC1CCN(c2ccccc2F)CC1 (relative stereo) [Example 228, ethyl cis-2-(((1-(2-fluorophenyl)piperidin-4-yl)oxy)methyl)-3-((methylsulfonyl)amino)piperidine-1-carboxylate] | 2.1 µM | 89%
5 | CS(=O)(=O)N[C@H]1CCCN(C(=O)C2CCCC2)[C@H]1COC1CCN(c2ccccc2F)CC1 (relative stereo) [Example 229, N-(cis-1-(cyclopentylcarbonyl)-2-(((1-(2-fluorophenyl)piperidin-4-yl)oxy)methyl)piperidin-3-yl)methanesulfonamide] | 1.5 µM | 85%
6 | CC(C)CC(=O)N1CCC[C@H](NS(C)(=O)=O)[C@@H]1COC1CCN(c2ccccc2F)CC1 (relative stereo) [Example 230, N-(cis-2-(((1-(2-fluorophenyl)piperidin-4-yl)oxy)methyl)-1-(3-methylbutanoyl)piperidin-3-yl)methanesulfonamide] | 2.6 µM | 80%
7 | CS(=O)(=O)N[C@H]1CCCN(C(=O)C2CC(=O)C2)[C@H]1COC1CCN(c2ccccc2F)CC1 (relative stereo) [Example 233, N-(cis-2-(((1-(2-fluorophenyl)piperidin-4-yl)oxy)methyl)-1-((3-oxocyclobutyl)carbonyl)piperidin-3-yl)methanesulfonamide] | 5 µM | 83%
8 | CS(=O)(=O)N[C@H]1CCCN(C(=O)C2CCCCC2)[C@H]1COC1CCN(c2ccccc2F)CC1 (relative stereo) [Example 236, N-(cis-1-(cyclohexylcarbonyl)-2-(((1-(2-fluorophenyl)piperidin-4-yl)oxy)methyl)piperidin-3-yl)methanesulfonamide] | 1.8 µM | 86%
9 | CS(=O)(=O)N[C@H]1CCCN(C(=O)C2CCC(F)(F)CC2)[C@H]1COC1CCN(c2ccccc2F)CC1 (relative stereo) [Example 238, N-(cis-1-((4,4-difluorocyclohexyl)carbonyl)-2-(((1-(2-fluorophenyl)piperidin-4-yl)oxy)methyl)piperidin-3-yl)methanesulfonamide] | 2.1 µM | 91%
10 | CC(=O)N1CCC[C@H](NS(C)(=O)=O)[C@@H]1CO[C@H]1CC[C@@H](c2cccc(C#N)c2)CC1 (relative stereo) [Example 252, N-(cis-1-acetyl-2-(((cis-4-(3-cyanophenyl)cyclohexyl)oxy)methyl)piperidin-3-yl)methanesulfonamide] | 2.9 µM | 93%
11 | CS(=O)(=O)N[C@H]1CCCN[C@H]1CO[C@H]1CC[C@@H](c2ccccc2C#N)CC1 (relative stereo) [Example 262, N-(cis-2-(((cis-4-(2-cyanophenyl)cyclohexyl)oxy)methyl)piperidin-3-yl)methanesulfonamide] | 2.5 µM | 94%
12 | COC(=O)N1CCC[C@H](NS(C)(=O)=O)[C@@H]1CO[C@H]1CC[C@@H](c2ccccc2C#N)CC1 (relative stereo) [Example 265, methyl cis-2-(((cis-4-(2-cyanophenyl)cyclohexyl)oxy)methyl)-3-((methylsulfonyl)amino)piperidine-1-carboxylate] | 2.3 µM | 94%
13 | CCNC(=O)N1CCC[C@H](NS(C)(=O)=O)[C@@H]1CO[C@H]1C[C@@H](Cc2ccccc2)C1 (relative stereo) [Example 266, cis-2-(((cis-3-benzylcyclobutyl)oxy)methyl)-N-ethyl-3-((methylsulfonyl)amino)piperidine-1-carboxamide] | 3.7 µM | 95%

These reach a lower EC50. Values come first.

Row | EC50 | Emax | Compound
14 | 0.49 µM | 90% | CC(C)OC(=O)N1CCC[C@H](NS(C)(=O)=O)[C@@H]1COC1CCN(c2ccccc2F)CC1 (relative stereo) [Example 237, isopropyl cis-2-(((1-(2-fluorophenyl)piperidin-4-yl)oxy)methyl)-3-((methylsulfonyl)amino)piperidine-1-carboxylate]
15 | 0.96 µM | 102% | CS(=O)(=O)N[C@H]1CCCN(C(=O)C2CC2)[C@H]1COC1CCN(c2ccccc2)CC1 (relative stereo) [Example 247, N-(cis-1-(cyclopropylcarbonyl)-2-(((1-phenylpiperidin-4-yl)oxy)methyl)piperidin-3-yl)methanesulfonamide]
16 | 0.00061 µM | 99% | CCNC(=O)N1CCC[C@H](NS(C)(=O)=O)[C@@H]1CO[C@H]1CC[C@@H](c2ccccc2C(F)(F)F)CC1 (relative stereo) [Example 249, cis-N-ethyl-3-((methylsulfonyl)amino)-2-(((cis-4-(2-(trifluoromethyl)phenyl)cyclohexyl)oxy)methyl)piperidine-1-carboxamide]
17 | 0.24 µM | 98% | CS(=O)(=O)N[C@H]1CCCN(C(=O)C2CC2)[C@H]1COC1CCC(c2ccccn2)CC1 (relative stereo) [Example 251, N-(cis-1-(cyclopropylcarbonyl)-2-(((4-(pyridin-2-yl)cyclohexyl)oxy)methyl)piperidin-3-yl)methanesulfonamide]
18 | 0.088 µM | 105% | CCNC(=O)N1CCC[C@H](NS(C)(=O)=O)[C@@H]1CO[C@H]1CC[C@@H](c2cccc(C#N)c2)CC1 (relative stereo) [Example 254, cis-2-(((cis-4-(3-cyanophenyl)cyclohexyl)oxy)methyl)-N-ethyl-3-((methylsulfonyl)amino)piperidine-1-carboxamide]
19 | 0.0081 µM | 102% | CC(C)OC(=O)N1CCC[C@H](NS(C)(=O)=O)[C@@H]1COC1CCN(c2ncccn2)CC1 (relative stereo) [Example 255, isopropyl cis-3-((methylsulfonyl)amino)-2-(((1-(pyrimidin-2-yl)piperidin-4-yl)oxy)methyl)piperidine-1-carboxylate]
20 | 0.057 µM | 88% | CCNC(=O)N1CCC[C@H](NS(C)(=O)=O)[C@@H]1CO[C@H]1CC[C@@H](c2ccccc2C#N)CC1 (relative stereo) [Example 263, cis-2-(((cis-4-(2-cyanophenyl)cyclohexyl)oxy)methyl)-N-ethyl-3-((methylsulfonyl)amino)piperidine-1-carboxamide]
